As usually defined, the IC50 is the concentration at which inhibition is half-maximal.

“Also recorded” adds a separate entry of the source.

One experiment relates to cytosolic Ca2+ signals. The experiment in a line: Ionomycin-induced cytosolic Ca2+ signals. It is filed as cell-based. Conditions: up to 30 μM.
A further experiment has as its system HeLa-ACE2 cells. Kind of experiment: SARS2-PsV-induced PS externalization in HeLa-ACE2 cells. It is filed as cell-based.
Experiment [1] has as its system CHO-Spike / HEK 293T-ACE2-TMPRSS2 cells. The experiment is classed as cell-based. The following applies: 10 μM.
The test system of a further experiment is Calu-3 cells. Kind of experiment: ATP-induced Ca2+ response in Calu-3 cells. The experiment is classed as cell-based, human. The following applies: 10 μM, ATP 100 μM.
Experiment [2] deals with SARS-CoV-2 Spike pseudotyped virus (SARS2-PsV). The experiment in a line: microbe, parasite or virus in culture. The experiment is classed as cell-based.
For a further experiment, the system named is SARS-CoV-2. Kind of experiment: Viral replication of SARS-CoV-2 in primary human nasal epithelial. It is filed as cell-based. The following applies: 10 μM basolateral, 72 h, HNE.
For a further experiment, the system named is human ANO1. Kind of experiment: YFP quenching anion channel assay, FRT-ANO1 cells.

Take `O=C(NCc1ccc(F)cc1)c1cccc(Nc2ccc(-c3ccccc3)nn2)c1` [A6-001, N-(4-fluorobenzyl)-3-((6-phenylpyridazin-3-yl)amino)benzamide]: in the experiment with cytosolic Ca2+ signals, the “ionomycin-induced cytosolic Ca2+ signals” value is listed as “did not affect”. For the same compound, the “SARS2-PsV-induced PS externalization” value in the experiment on HeLa-ACE2 cells (10 μM, 1 h) was “strongly inhibited; also recorded: inhibit”. Besides, in the experiment with HeLa-ACE2 cells (trypsin 10 μg/mL, 10 min, 37°C), the “PS externalization evoked by trypsin-pretreated SARS2-PsV” value is “inhibits”. In addition, the membrane-fusion events entry in experiment [1] (8-h time-lapse) was “abolishes; also recorded: profoundly reduced”. Moreover, in experiment [1] (Video S3), the “initial lipid-mixing event and cell-cell fusion” value is on record as “eliminated”. Also, the cell-cell adhesion entry in experiment [1] (initial 1 h) is listed as “does not affect; also recorded: not affecting”. Moreover, the “purinergic agonist (ATP)-induced Ca2+ response” value in the experiment with Calu-3 cells is listed as “did not alter”. The “cellular viral reduction, pseudotyped virus” value in experiment [2] is given as 78%. In addition, the “single-round infection of SARS2-PsV” value in experiment [2] (BAPTA-AM 10 μM) is reported as “dose dependently inhibited”. In addition, the IC50 in experiment [2] (Severe acute respiratory syndrome coronavirus 2, read-out: IC50, single-round infection) stood at 420 nM. The “average reduction in viral replications, plaque assay” value in the experiment on SARS-CoV-2 came out at 94%. Further, the “ANO6 selectivity against ANO1” value in the experiment on human ANO1 was 460 fold.
